Experimental data from patent publication US20250340538A1, “IMIDAZOLONE DERIVATIVES AS INHIBITORS OF PROTEIN KINASES IN PARTICULAR DYRK1A, CLK1 AND/OR CLK4” (PERHA PHARMACEUTICALS, priority 2021, published 2025).
Like-named read-outs stand apart in the source and are kept apart here.

Legend:
Type in all cases: biochemical
CLK1 = molecular target: T1, CLK1 (Homo sapiens, UniProt P49759); test: Radiometric protein kinase assay (33PanQinase Activity Assay), CLK1; settings: read-out: Potency Class CLK1
T1 construct: GST-fusion or His-tag (not specified per kinase); purchased ProQinase GmbH; host or cells: Sf9 insect cells or E. coli (not specified per kinase)
T1 sequence (P49759 whole entry, the tested form may be a part): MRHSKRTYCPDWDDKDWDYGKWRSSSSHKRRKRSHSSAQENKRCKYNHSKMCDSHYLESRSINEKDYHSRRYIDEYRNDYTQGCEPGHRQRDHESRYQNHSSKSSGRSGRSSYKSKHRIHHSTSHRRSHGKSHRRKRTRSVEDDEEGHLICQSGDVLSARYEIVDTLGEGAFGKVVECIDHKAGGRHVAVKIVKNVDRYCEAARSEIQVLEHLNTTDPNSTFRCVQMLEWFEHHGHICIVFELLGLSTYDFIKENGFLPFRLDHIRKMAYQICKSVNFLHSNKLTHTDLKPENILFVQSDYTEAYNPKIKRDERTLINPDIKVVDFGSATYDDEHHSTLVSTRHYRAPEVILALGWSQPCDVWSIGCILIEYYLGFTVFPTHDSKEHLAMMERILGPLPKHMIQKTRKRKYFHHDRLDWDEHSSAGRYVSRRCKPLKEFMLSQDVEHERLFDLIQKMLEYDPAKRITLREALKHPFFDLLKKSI
Summary of the method: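 Human kinase (Sf9- or E. coli-expressed, tagged, purified) + substrate + [γ-33P]-ATP; cpd 10 μM→30 nM, 10 pts, 1% DMSO; 30 °C, 60 min; H3PO4 stop; scintillation count; IC50 from curve.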

CLK2 = molecular target: T2, CLK2 (Homo sapiens, UniProt P49760); test: Radiometric protein kinase assay (33PanQinase Activity Assay), CLK2; settings: read-out: IC50 on CLK2 (most potent CLK2 inhibitors)
T2 construct: GST-fusion or His-tag (not specified per kinase); purchased ProQinase GmbH; host or cells: Sf9 insect cells or E. coli (not specified per kinase)
T2 sequence (P49760 whole entry, the tested form may be a part): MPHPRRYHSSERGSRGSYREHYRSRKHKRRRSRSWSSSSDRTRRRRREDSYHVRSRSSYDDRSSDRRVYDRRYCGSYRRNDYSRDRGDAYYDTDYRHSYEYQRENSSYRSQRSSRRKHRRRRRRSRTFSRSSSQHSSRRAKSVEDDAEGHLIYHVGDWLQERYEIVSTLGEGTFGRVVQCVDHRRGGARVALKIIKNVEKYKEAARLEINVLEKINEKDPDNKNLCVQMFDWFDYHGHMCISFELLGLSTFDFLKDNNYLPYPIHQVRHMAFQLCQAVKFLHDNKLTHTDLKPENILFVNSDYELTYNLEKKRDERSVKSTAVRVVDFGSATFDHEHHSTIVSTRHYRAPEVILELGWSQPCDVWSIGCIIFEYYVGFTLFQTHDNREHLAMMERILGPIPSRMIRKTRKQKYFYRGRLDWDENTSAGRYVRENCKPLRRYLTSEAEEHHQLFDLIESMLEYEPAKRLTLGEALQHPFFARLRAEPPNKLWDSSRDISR
Description: (§1) Assays were performed by ProQinase GmbH (Engesserstr. 4, D-79108 Freiburg, Germany. www.proqinase.com). The IC50 profile of all compounds was determined using 12 protein kinases (CDK2/cyclin E, CK1ε, CLK1, 2, 3, 4, DYRK1A, 1B, 2, 3, 4, GSK3β).
(§2) The compounds were provided as […] in 100% DMSO. Prior to testing, the 1 μM stock solutions were subjected to a serial, semi-logarithmic dilution using 100% DMSO as a solvent. […] In the process, 90 μl H2O were added to each well of each compound dilution plate. To minimize potential precipitation, the H2O was added to each plate only a few minutes before the transfer of the compound solutions into the assay plates. The plate was shaken thoroughly, resulting in a compound dilution plate/10% DMSO.
(§3) For the assays (see below), 5 μL solution from each well of the compound dilution plates/10% DMSO were transferred into the assay plates. The final volume of the assay was 50 μL. All compounds were tested at 10 final assay concentrations in the range from 10 μM to 30 nM. The final DMSO concentration in the reaction cocktails was 1% in all cases.
(§4) All protein kinases provided by ProQinase were expressed in Sf9 insect cells or in E. coli as recombinant GST-fusion proteins or His-tagged proteins, either as full-length or enzymatically active fragments. All kinases were produced from human cDNAs and purified by either GSH-affinity chromatography or immobilized metal. Affinity tags were removed from a number of kinases during purification. The purity of the protein kinases was examined by SDS-PAGE/Coomassie staining, the identity was checked by mass spectroscopy.
(§5) A radiometric protein kinase assay (33PanQinase® Activity Assay) was used for measuring the kinase activity of the 12 protein kinases. All kinase assays were performed in 96-well FlashPlates™ from PerkinElmer (Boston, MA, USA) in a 50 μL reaction volume. The reaction cocktail was pipetted in four steps in the following order: • 25 μL of assay buffer (standard buffer/[γ-^33P]-ATP), • 10 μL of ATP solution (in H2O), • 5 μL of test compound (in 10% DMSO), • 10 μL of enzyme/substrate mixture.
(§6) The reaction cocktails were incubated at 30° C. for 60 minutes. The reaction was stopped with 50 μL of 2% (v/v) H3PO4, plates were aspirated and washed two times with 200 μL 0.9% (w/v) NaCl. Incorporation of ^33Pi was determined with a microplate scintillation counter (Microbeta, Wallac). The IC50 values for all compounds were calculated from the dose response curves
(§7) As a parameter for assay quality, the Z′-factor (Zhang et al., J. Biomol. Screen. 2: 67-73, 1999) for the low and high controls of each assay plate (n=8) was used. ProQinase's criterion for repetition of an assay plate is a Z′-factor below 0.4 (Iversen et al., J. Biomol. Screen. 3: 247-252, 2006).

DYRK1A = molecular target: T3, DYRK1A (Homo sapiens, UniProt Q13627); test: Radiometric protein kinase assay (33PanQinase Activity Assay), DYRK1A; settings: for IC50: read-out: Potency Class DYRK1A; for Selectivity Class DYRK1A vs. CLK1: ratio of IC50 on CLK1 over IC50 on DYRK1A; for Selectivity Class DYRK1A vs. DYRK1B: ratio of IC50 on DYRK1B over IC50 on DYRK1A
T3 construct: GST-fusion or His-tag (not specified per kinase); purchased ProQinase GmbH; host or cells: Sf9 insect cells or E. coli (not specified per kinase)
Summary of the method: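 Recombinant human kinase, expressed in Sf9 or E. coli, in a radiometric [γ-33P]-ATP assay at 30 °C for 60 min. Compounds tested at 10 concentrations from 10 μM to 30 nM, 1% DMSO final. 33Pi incorporation measured by scintillation counting; IC50 from dose-response curves.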

CLK4 = molecular target: T4, CLK4 (Homo sapiens, UniProt Q9HAZ1); test: Radiometric protein kinase assay (33PanQinase Activity Assay), CLK4; settings: read-out: IC50 on CLK4 (most potent CLK4 inhibitors)
T4 construct: GST-fusion or His-tag (not specified per kinase); purchased ProQinase GmbH; host or cells: Sf9 insect cells or E. coli (not specified per kinase)
T4 sequence (Q9HAZ1 whole entry, the tested form may be a part): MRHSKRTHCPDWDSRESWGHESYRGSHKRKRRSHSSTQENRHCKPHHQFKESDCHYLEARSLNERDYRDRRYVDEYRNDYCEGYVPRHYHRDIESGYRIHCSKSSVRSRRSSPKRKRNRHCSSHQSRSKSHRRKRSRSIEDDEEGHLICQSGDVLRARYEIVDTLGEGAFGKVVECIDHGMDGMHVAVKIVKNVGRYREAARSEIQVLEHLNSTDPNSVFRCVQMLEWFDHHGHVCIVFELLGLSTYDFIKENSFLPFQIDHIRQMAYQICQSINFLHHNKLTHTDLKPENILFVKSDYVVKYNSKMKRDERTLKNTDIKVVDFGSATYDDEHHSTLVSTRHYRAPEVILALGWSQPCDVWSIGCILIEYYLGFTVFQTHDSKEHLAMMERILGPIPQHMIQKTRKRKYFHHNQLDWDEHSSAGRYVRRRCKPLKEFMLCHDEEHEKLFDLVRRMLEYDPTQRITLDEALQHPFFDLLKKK
Description: as §1, §2, §3, §4, §5, §6, §7

[1] = class by IC50 on CLK1, from dose-response curves
[2] = class by IC50 on DYRK1A, from dose-response curves

SMILES | IC50 (CLK1; [1]) | IC50 (CLK2) | IC50 (DYRK1A; [2]) | Selectivity Class DYRK1A vs. CLK1 (DYRK1A) | Selectivity Class DYRK1A vs. DYRK1B (DYRK1A) | IC50 (CLK1; IC50 class A to E) | IC50 (CLK4) | IC50 (DYRK1A; IC50 class A to E)
O=C1NC(NC23CC4CC(CC(C4)C2)C3)=N/C1=C\c1ccc2nccnc2c1 [Compound 17, (4Z)-2-(1-adamantylamino)-4-(quinoxalin-6-ylmethylene)-1H-imidazol-5-one] | 25 to 50 nM | ≤ 100 nM | 10 to 25 nM | II (ratio between 2 and 10 fold) | II (ratio between 2 and 10 fold) |  |  | 
COC[C@H](NC1=N/C(=C\c2ccc3ncccc3n2)C(=O)N1)c1ccccc1 [Compound 71, (4Z)-2-[[(1R)-2-methoxy-1-phenyl-ethyl]amino]-4-(1,5-naphthyridin-2-ylmethylene)-1H-imidazol-5-one] | 10 to 25 nM |  | > 50 nM | IV (ratio between 0.1 and 0.5 fold) | II (ratio between 2 and 10 fold) | 10 to 25 nM | ≤ 10 nM | > 50 nM
O=C1NC(N[C@@H]2CCOC2)=N/C1=C\c1ccc2nccnc2c1 [Compound 37, (4Z)-4-(quinoxalin-6-ylmethylene)-2-[[(3R)-tetrahydrofuran-3-yl]amino]-1H-imidazol-5-one] | > 50 nM |  | > 50 nM | III (ratio between 0.5 and 2 fold) | II (ratio between 2 and 10 fold) |  |  | 
O=C1NC(N[C@@H]2COCC[C@H]2O)=N/C1=C\c1ccc2nccnc2c1 [Compound 40, (4Z)-2-[[(3R,4R)-4-Hydroxytetrahydropyran-3-yl]amino]-4-(quinoxalin-6-ylmethylene)-1H-imidazol-5-one] | > 50 nM |  | > 50 nM | III (ratio between 0.5 and 2 fold) | II (ratio between 2 and 10 fold) |  |  | 
COC[C@@H](CC(C)C)NC1=N/C(=C\c2ccc3ncncc3c2)C(=O)N1 [Compound 78, (4Z)-2-[[(1R)-1-(methoxymethyl)-3-methyl-butyl]amino]-4-(quinazolin-6-ylmethylene)-1H-imidazol-5-one] | > 50 nM |  | > 50 nM | II (ratio between 2 and 10 fold) | II (ratio between 2 and 10 fold) |  |  | 
O=C1NC(N[C@@H]2CCOC2)=N/C1=C\c1ccc2ncccc2c1 [Compound 55, (4Z)-4-(6-Quinolylmethylene)-2-[[(3R)-tetrahydrofuran-3-yl]amino]-1H-imidazol-5-one] | > 50 nM |  | > 50 nM | III (ratio between 0.5 and 2 fold) | III (ratio between 0.5 and 2 fold) |  |  | 
CC1(C)CCC(NC2=N/C(=C\c3ccc4nccnc4c3)C(=O)N2)CO1 (racemic) [Compound 36, (±)-(4Z)-2-[(6,6-dimethyltetrahydropyran-3-yl)amino]-4-(quinoxalin-6-ylmethylene)-1H-imidazol-5-one] | > 50 nM |  | > 50 nM | II (ratio between 2 and 10 fold) | II (ratio between 2 and 10 fold) |  |  | 
Cn1ccc(NC2=N/C(=C\c3ccc4nccnc4c3)C(=O)N2)n1 [Compound 34, (4Z)-2-[(1-methylpyrazol-3-yl)amino]-4-(quinoxalin-6-ylmethylene)-1H-imidazol-5-one] | > 50 nM |  | > 50 nM | III (ratio between 0.5 and 2 fold) | II (ratio between 2 and 10 fold) |  |  | 
O=C1NC(NCc2ccccc2C(F)(F)F)=N/C1=C\c1ccc2nccnc2c1 [Compound 22, (4Z)-4-(quinoxalin-6-ylmethylene)-2-[[2-(trifluoromethyl)phenyl]methylamino]-1H-imidazol-5-one] | > 50 nM |  | > 50 nM | III (ratio between 0.5 and 2 fold) | II (ratio between 2 and 10 fold) |  |  | 
CN1C(=O)/C(=C/c2ccc3ncncc3c2)N=C1NC1CCCCCC1 [Compound 89, (5Z)-2-(Cycloheptylamino)-3-methyl-5-(quinazolin-6-ylmethylene)imidazol-4-one] | > 50 nM |  | > 50 nM | III (ratio between 0.5 and 2 fold) | III (ratio between 0.5 and 2 fold) |  |  | 
O=C1NC(N[C@H]2CCCOC2)=N/C1=C\c1ccc2nccnc2c1 [Compound 38, (4Z)-4-(quinoxalin-6-ylmethylene)-2-[[(3S)-tetrahydropyran-3-yl]amino]-1H-imidazol-5-one] | > 50 nM |  | > 50 nM | III (ratio between 0.5 and 2 fold) | II (ratio between 2 and 10 fold) |  |  | 
Cn1ccc(NC2=N/C(=C\c3ccc4cnccc4c3)C(=O)N2)n1 [Compound 65, (4Z)-4-(6-Isoquinolylmethylene)-2-[(1-methylpyrazol-3-yl)amino]-1H-imidazol-5-one] | > 50 nM |  | > 50 nM | IV (ratio between 0.1 and 0.5 fold) | III (ratio between 0.5 and 2 fold) |  |  | 
O=C1NC(NCc2ccccc2)=N/C1=C\c1ccc2ncccc2c1 [Compound 51] | > 50 nM |  | > 50 nM | IV (ratio between 0.1 and 0.5 fold) | II (ratio between 2 and 10 fold) |  |  | 
O=C1NC(NCc2ccccc2)=N/C1=C\c1ccc2nccnc2c1 [Compound 21] | > 50 nM |  | > 50 nM | III (ratio between 0.5 and 2 fold) | II (ratio between 2 and 10 fold) |  |  | 
CC(C)C[C@H](CO)NC1=N/C(=C\c2ccc3ncccc3c2)C(=O)N1 [Compound 46, (4Z)-2-[[(1R)-1-(hydroxymethyl)-3-methyl-butyl]amino]-4-(6-quinolylmethylene)-1H-imidazol-5-one] | > 50 nM |  | 10 to 25 nM | II (ratio between 2 and 10 fold) | II (ratio between 2 and 10 fold) |  |  | 
COC[C@H](NC1=N/C(=C\c2ccc3ncccc3c2)C(=O)N1)c1ccccc1 [Compound 52, (4Z)-2-[[(1R)-2-methoxy-1-phenyl-ethyl]amino]-4-(6-quinolylmethylene)-1H-imidazol-5-one] | > 50 nM |  | > 50 nM | III (ratio between 0.5 and 2 fold) | II (ratio between 2 and 10 fold) |  |  | 
